Data published in patent US6696495B2, “Treatment of disorders secondary to organic impairments” (Snowden Pharmaceuticals, LLC, priority 1998, dated 2004).

Tests used:
Format in all cases: in vivo, human
[1] = test system: Sexual Function, ADD, and Rage Outbursts; assay: Case history 3, Sibutramine Patient No. 100; conditions: sibutramine 10 mg twice a day
[2] = test system: Dementia, Alzheimer's-Type; assay: Case history 24
Method: 24. The Symptoms Due to Dementia, Alzheimer's-Type
person one was diagnosed with Dementia. The symptoms they suffered from included memory loss and severe confusion. They tried a variety of treatments to relieve their symptoms including choldine esterase inhibitors, antidepressants, Ritilin, and aterol. […] They were then tested off of sibutramine. […] They began to suffer from a lowered I.Q. and their memory deteriorated.

[3] = test system: Sexual Gender Choice Change; assay: Case history 7, Sibutramine Patient No. 99; conditions: sibutramine 10 mg every morning; person
[4] = test system: Reflex Sympathetic Dystrophy Syndrome (RSDS); assay: Case history 22; conditions: sibutramine 10 mg. b.i.d. Person
From the text: 22. Reflex Sympathetic Dystrophy Syndrome (RSDS)
A person injured their left ankle 14 months prior to their initial visit. The left lower leg then became red and then black, hot, swollen, and extremely painful. RSD was diagnosed and multiple treatments were unsuccessful. After nine months the skin gradually sloughed and the limb turned cold but remained painful, especially to touch. The patient also noted profuse swelling of the affected left leg, a tremor of the left hand, and many visual-spatial problems characteristic of right cerebral dysfunction. They were declared totally disabled. […] This enabled them to discontinue their other medication.

[5] = test system: ADHD Refractory to Other Treatments; conditions: sibutramine 10 mg every morning by mouth; person
Method: 16. ADHD Refractory to Other Treatments (Problem No. 6) Sibutramine Patient No. 16
The amphetamines made their nervous, jittery, and unable to sleep. […] They were started on sibutramine 10 mg every morning by mouth. […] After the first month, their dose was changed to 5 mg three times daily due to a five hour duration of effects.

[6] = test system: Intracerebral Porencephalic Cyst With Oscillopsia; assay: Case history 14, Sibutramine Patient No. 111
From the text: 14. Intracerebral Porencephalic Cyst With Oscillopsia (Problem No. 5) Sibutramine Patient No. 111
A person suffered a severe head injury in 1976 with a fractured skull, coma, and an intracerebral (porencephalic) cyst caused by the traumatic blockage of their cerebral spinal fluid in their brain. This cyst was repaired surgically with a brain ventricular—jugular vein shunt. This had permitted them to work continuously with concomitant treatment with carbamazepine, valproic acid, and dextroamphetamine until early 1998 when they began to suffer severe attacks of bizarrely altered vision, dizziness, ataxia, and confusion. The attacks progressed to several times per week, lasting 4-24 hours in duration. […] There is no known treatment for these attacks and they were therefore unable to drive or work safely. They were placed on total disability. They were started on 10 mg of sibutramine as needed for these oscillopsia attacks. […] After 2 months at the 5 mg tid dosage, the patient again noted a recurrence of oscillopsia on a 2-3 times weekly basis.

[7] = test system: Sexual Obsessive-Compulsive Behavior, ADD and Executive Function; assay: Case history 6, Sibutramine Patient No. 77

CC(C)CC(N(C)C)C1(c2ccc(Cl)cc2)CCC1.Cl (stereo not shown) [sibutramine, N,N-dimethyl-1-[1-(4-chlorophenyl)cyclobutyl]-3-methylbutylamine hydrochloride]
concentration and anger outbursts [1]: able to concentrate better and had fewer and less severe anger outbursts
sexual drive and interest ([1]; person): an increase in their sexual drive and interest
memory loss and severe confusion ([2]; sibutramine 15 mg once a day, person one): their symptoms quickly dissipated
symptoms off sibutramine ([2]; taken off sibutramine): their symptoms reappeared
sexual interest [3]: an increased interest in sex generally, but for the first time this interest included females as well as males
cognition and pain [4]: rapidly became cognitive and had pain relief
effect on ADHD [5]: a calming and an alerting effect
oscillopsia attacks ([6]; 10 mg of sibutramine as needed, person): appeared to help
recurrence of oscillopsia ([6]; after 2 months at 5 mg tid): 2-3 times weekly
oscillopsia attacks in the next four weeks ([6]; sibutramine 5 mg three times daily): only one such attack
oscillopsia attacks ([6]; sibutramine 10 mg tid): absence of attacks
concentration, organization, sexual obsessive-compulsive problems ([7]; sibutramine 10 mg every morning, then 5 mg three times a day by mouth, person): could concentrate, organize, and no longer had the sexual obsessive-compulsive problems
duration of effects of each dose ([7]; sibutramine by mouth): about five
